In patent US12643881B2, “Bicyclic amine CDK12 inhibitors” (Incyte Corporation, priority 2021, dated 2026):

Each compound was assayed against T1, CDK12 complexed with Cyclin K (Homo sapiens, UniProt Q9NYV4) (assay: CDK Enzymatic Assays (HTRF, LANCE Ultra kinase assay), Example A1). Details: enzyme pre-incubated with compounds for 60 minutes prior to addition of ATP (1 mM final) and Ulight-peptide; reaction 60-90 minutes at room temperature.
T1 construct: GST (N)
Assay type: biochemical
Outline: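 N-terminal GST-tagged human CDK12 co-expressed with full-length Cyclin K (baculovirus), pre-incubated with compound 60 min, then 1 mM ATP and 50 nM ULight-4E-BP1 peptide added in HEPES pH 7.5 buffer; 60-90 min at room temperature. EDTA/Eu-antibody stop, HTRF 665/620 ratio normalized to controls; IC50 from 3- or 4-parameter fit.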

T1 sequence (Q9NYV4 whole entry): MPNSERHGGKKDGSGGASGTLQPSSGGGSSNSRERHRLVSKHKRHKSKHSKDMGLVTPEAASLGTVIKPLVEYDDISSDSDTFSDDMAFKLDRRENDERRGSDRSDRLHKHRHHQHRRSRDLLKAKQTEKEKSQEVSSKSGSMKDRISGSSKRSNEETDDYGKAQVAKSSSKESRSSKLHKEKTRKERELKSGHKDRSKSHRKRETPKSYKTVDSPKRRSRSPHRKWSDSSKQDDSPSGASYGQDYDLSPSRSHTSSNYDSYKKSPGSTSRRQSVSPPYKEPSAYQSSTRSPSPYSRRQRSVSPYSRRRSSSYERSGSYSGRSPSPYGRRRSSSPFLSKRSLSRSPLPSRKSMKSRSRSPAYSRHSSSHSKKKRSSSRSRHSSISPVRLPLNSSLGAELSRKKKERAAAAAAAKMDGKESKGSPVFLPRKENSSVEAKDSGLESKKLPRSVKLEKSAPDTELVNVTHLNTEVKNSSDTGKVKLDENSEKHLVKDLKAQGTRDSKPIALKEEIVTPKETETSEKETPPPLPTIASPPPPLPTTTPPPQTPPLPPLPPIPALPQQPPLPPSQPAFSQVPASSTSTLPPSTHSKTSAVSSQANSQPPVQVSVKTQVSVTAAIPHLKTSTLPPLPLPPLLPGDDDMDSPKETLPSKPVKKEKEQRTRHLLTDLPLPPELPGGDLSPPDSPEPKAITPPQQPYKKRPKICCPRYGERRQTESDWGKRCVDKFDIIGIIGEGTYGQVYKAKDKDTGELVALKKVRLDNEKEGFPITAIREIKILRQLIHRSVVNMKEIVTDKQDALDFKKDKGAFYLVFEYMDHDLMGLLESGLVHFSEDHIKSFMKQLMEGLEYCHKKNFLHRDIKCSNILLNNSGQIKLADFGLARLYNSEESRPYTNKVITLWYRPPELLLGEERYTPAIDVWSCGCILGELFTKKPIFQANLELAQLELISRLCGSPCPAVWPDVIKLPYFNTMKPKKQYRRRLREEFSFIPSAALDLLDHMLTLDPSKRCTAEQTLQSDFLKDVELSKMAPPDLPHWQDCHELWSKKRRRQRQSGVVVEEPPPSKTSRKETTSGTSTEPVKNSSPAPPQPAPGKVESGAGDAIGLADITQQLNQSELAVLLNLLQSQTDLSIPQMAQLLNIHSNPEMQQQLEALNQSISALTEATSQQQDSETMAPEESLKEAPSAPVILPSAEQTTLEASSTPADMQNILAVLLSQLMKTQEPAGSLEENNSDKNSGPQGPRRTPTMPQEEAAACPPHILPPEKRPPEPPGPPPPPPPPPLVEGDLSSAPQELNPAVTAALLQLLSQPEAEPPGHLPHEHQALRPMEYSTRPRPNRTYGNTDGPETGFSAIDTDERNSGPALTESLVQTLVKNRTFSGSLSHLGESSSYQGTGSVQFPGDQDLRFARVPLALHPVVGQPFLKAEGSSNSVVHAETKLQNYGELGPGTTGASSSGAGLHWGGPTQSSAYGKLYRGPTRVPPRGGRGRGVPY
T1 sequence (O75909 whole entry partner): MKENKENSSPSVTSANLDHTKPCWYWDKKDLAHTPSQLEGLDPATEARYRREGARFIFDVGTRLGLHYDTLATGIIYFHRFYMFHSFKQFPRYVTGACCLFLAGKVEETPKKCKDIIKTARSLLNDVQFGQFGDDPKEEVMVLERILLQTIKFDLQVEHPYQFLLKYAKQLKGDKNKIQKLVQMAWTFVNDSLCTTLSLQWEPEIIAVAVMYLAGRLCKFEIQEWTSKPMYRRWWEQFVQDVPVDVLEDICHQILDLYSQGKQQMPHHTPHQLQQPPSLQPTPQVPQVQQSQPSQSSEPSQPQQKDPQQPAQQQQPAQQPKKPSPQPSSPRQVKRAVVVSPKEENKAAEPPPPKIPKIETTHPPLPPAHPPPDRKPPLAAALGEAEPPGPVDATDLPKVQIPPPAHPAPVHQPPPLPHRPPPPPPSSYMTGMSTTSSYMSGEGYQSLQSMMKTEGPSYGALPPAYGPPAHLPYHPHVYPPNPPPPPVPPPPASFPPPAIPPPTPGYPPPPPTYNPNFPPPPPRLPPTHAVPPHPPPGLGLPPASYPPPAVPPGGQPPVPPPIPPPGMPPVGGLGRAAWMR

| Structure (SMILES) | IC50 [nM] |
| --- | --- |
| C=CC(=O)Nc1ccc2c(cnn2[C@H]2CCC[C@@H](Nc3ncc(C#N)c(OC)n3)C2)c1 [Example 25, N-(1-((1S,3R)-3-((5-Cyano-4-methoxypyrimidin-2-yl)amino)cyclohexyl)-1H-indazol-5-yl)acrylamide] | 50 to 500 |
| C=CC(=O)Nc1ccc2c(c1)C(=O)N([C@H]1CCC[C@@H](Nc3cc(C)c(C#N)cn3)C1)C2 [Example 16, N-(2-((1S,3R)-3-((5-Cyano-4-methylpyridin-2-yl)amino)cyclohexyl)-3-oxoisoindolin-5-yl)acrylamide] | 50 to 500 |
| C=CC(=O)Nc1ccc2c(c1)cc(N1CCC[C@@H](Nc3ncc(C#N)c(OC)n3)C1)n2C [Example 39, (R)—N-(2-(3-((5-Cyano-4-methoxypyrimidin-2-yl)amino)piperidin-1-yl)-1-methyl-1H-indol-5-yl)acrylamide] | > 500 |
| C=CC(=O)N1C2CCC1CN(c1nccn3c(N4CCC[C@@H](Nc5ncc(C(F)(F)F)cn5)C4)ncc13)C2 [Example 109, 1-(3-(3-((R)-3-((5-(Trifluoromethyl)pyrimidin-2-yl)amino)piperidin-1-yl)imidazo[1,5-a]pyrazin-8-yl)-3,8-diazabicyclo[3.2.1]octan-8-yl)prop-2-en-1-one] | < 50 |
| CCC(Br)C(=O)Nc1nn(C)c2cc(N3CCC[C@@H](Nc4ncc(C#N)c(OC)n4)C3)ncc12 (stereo partly drawn) [Example 31, 2-Bromo-N-(6-((R)-3-((5-cyano-4-methoxypyrimidin-2-yl)amino)piperidin-1-yl)-1-methyl-1H-pyrazolo[4,3-c]pyridin-3-yl)butanamide] | < 50 |
| C=CC(=O)Nc1ccc2c(c1)C(=O)N([C@H]1CCC[C@@H](Nc3ncc(C#N)c(N4CCOCC4)n3)C1)C2 [Example 76, N-(2-((1S,3R)-3-((5-Cyano-4-morpholinopyrimidin-2-yl)amino)cyclohexyl)-3-oxoisoindolin-5-yl)acrylamide] | < 50 |
| C=CC(=O)Nc1ccc2c(c1)nc(N1CCC(F)(F)[C@@H](Nc3ncc(C(F)(F)F)cn3)C1)n2C [Example 92, (S)—N-(2-(4,4-Difluoro-3-((5-(trifluoromethyl)pyrimidin-2-yl)amino)piperidin-1-yl)-1-methyl-1H-benzo[d]imidazol-5-yl)acrylamide] | < 50 |
| C=CC(=O)Nc1nc2cccc(N3CCC[C@@H](Nc4ncc(C#N)c(OC)n4)C3)n2n1 [Example 22, (R)—N-(5-(3-((5-Cyano-4-methoxypyrimidin-2-yl)amino)piperidin-1-yl)-[1,2,4]triazolo[1,5-a]pyridin-2-yl)acrylamide] | < 50 |

Next, values leading:

| IC50 [nM] | Structure (SMILES) |
| --- | --- |
| < 50 | C=CC(=O)Nc1ccc2c(c1)C(=O)N([C@H]1CCC[C@@H](Nc3ncc(Cl)c(OC)n3)C1)C2 [Example 81, N-(2-((1S,3R)-3-((5-Chloro-4-methoxypyrimidin-2-yl)amino)cyclohexyl)-3-oxoisoindolin-5-yl)acrylamide] |
| < 50 | C=CC(=O)Nc1ccc2c(c1)C(=O)N([C@H]1CCC[C@@H](Nc3ncc(C(F)(F)F)c(N4CC[C@@H](N(C)C)C4)n3)C1)C2 [Example 62, N-(2-((1S,3R)-3-((4-((R)-3-(Dimethylamino)pyrrolidin-1-yl)-5-(trifluoromethyl)pyrimidin-2-yl)amino)cyclohexyl)-3-oxoisoindolin-5-yl)acrylamide] |
| < 50 | C=CC(=O)Nc1cnc2c(N3CCC[C@@H](Nc4ncc(C#N)c(OC)n4)C3)nccn12 [Example 34, (R)—N-(8-(3-((5-Cyano-4-methoxypyrimidin-2-yl)amino)piperidin-1-yl)imidazo[1,2-a]pyrazin-3-yl)acrylamide] |
| < 50 | C=CC(=O)Nc1ccc2c(c1)C(=O)N([C@H]1CCC[C@@H](Nc3ncc(Cl)cn3)C1)C2 [Example 82, N-(2-((1S,3R)-3-((5-Chloropyrimidin-2-yl)amino)cyclohexyl)-3-oxoisoindolin-5-yl)acrylamide] |
| < 50 | C=CC(=O)Nc1ccc2sc(N3CC[C@@H](Nc4ncc(C#N)c(OC)n4)C3)nc2c1 [Example 41, (R)—N-(2-(3-((5-Cyano-4-methoxypyrimidin-2-yl)amino)pyrrolidin-1-yl)benzo[d]thiazol-5-yl)acrylamide] |
| < 50 | C=CC(=O)Nc1ccc2c(c1)C(=O)N([C@H]1CCC[C@@H](Nc3ncc(C(F)(F)F)s3)C1)C2 [Example 29, N-(3-Oxo-2-((1S,3R)-3-((5-(trifluoromethyl)thiazol-2-yl)amino)cyclohexyl)isoindolin-5-yl)acrylamide] |
| < 50 | C=CC(=O)Nc1ccc2c(c1)nnn2[C@H]1CCC[C@@H](Nc2ncc(C#N)cn2)C1 [Example 71, N-(1-((1S,3R)-3-((5-Cyanopyrimidin-2-yl)amino)cyclohexyl)-1H-benzo[d][1,2,3]triazol-5-yl)acrylamide] |
| < 50 | C=CC(=O)Nc1ccc2nc(N3CCC[C@@H](Nc4ncc(C#N)c(OC)n4)C3)nn2c1 [Example 44, (R)—N-(2-(3-((5-Cyano-4-methoxypyrimidin-2-yl)amino)piperidin-1-yl)-[1,2,4]triazolo[1,5-a]pyridin-6-yl)acrylamide] |
| < 50 | C=CC(=O)Nc1ccc2c(c1)nc([C@H]1CC[C@@H](Nc3ncc(C#N)cn3)C1)n2C [Example 70, N-(2-((1S,3R)-3-((5-Cyanopyrimidin-2-yl)amino)cyclopentyl)-1-methyl-1H-benzo[d]imidazol-5-yl)acrylamide] |
| < 50 | C=CC(=O)Nc1cccc2c1ncn2[C@H]1CCC[C@@H](Nc2ncc(C#N)cn2)C1 [Example 69, N-(1-((1S,3R)-3-((5-Cyanopyrimidin-2-yl)amino)cyclohexyl)-1H-benzo[d]imidazol-4-yl)acrylamide] |
| < 50 | CC#CC(=O)Nc1nn(C)c2cc(N3CCC[C@@H](Nc4ncc(C#N)c(OC)n4)C3)ncc12 [Example 30, (R)—N-(6-(3-((5-Cyano-4-methoxypyrimidin-2-yl)amino)piperidin-1-yl)-1-methyl-1H-pyrazolo[4,3-c]pyridin-3-yl)but-2-ynamide] |
| < 50 | C=CC(=O)Nc1ccc2c(c1)C(=O)N([C@H]1CCC[C@@H](Nc3ncc(C#N)c(OC)n3)C1)C2 [Example 83, N-(2-((1S,3R)-3-((5-Cyano-4-methoxypyrimidin-2-yl)amino)cyclohexyl)-3-oxoisoindolin-5-yl)acrylamide] |

These compounds were tested against T1, CDK12 complexed with Cyclin K (assay: Alternative CDK Enzymatic Assays (HTRF, pre-incubation with compounds and 1 mM ATP), Example A2). Details: enzyme pre-incubated with compounds and 1 mM ATP for 60 minutes; reaction 120 minutes at 25° C.
Assay type: biochemical
Description: Example A2. Alternative CDK Enzymatic Assays
The following activity of the CDK enzymes in complex with their respective cyclins we assayed: CDK1 complexed with Cyclin B1; CDK2 complexed with Cyclin E1; CDK4 complexed with Cyclin D1; CDK6 complexed with Cyclin D1; CDK6 complexed with Cyclin D3; CDK9 complexed with Cyclin T1; CDK7 complexed with Cyclin H/MAT1; CDK2 complexed with Cyclin A2; CDK5 complexed with p35; CDK12 complexed with Cyclin K; CDK13 complexed with Cyclin K. These in vitro enzyme activity are assayed using homogeneous time-resolved energy transfer (HTRF), which measures phosphorylation of a peptide substrate. The LANCER Ultra kinase assay (PerkinElmer) uses a ULight™-labeled EIF4E-binding protein 1 (THR37/46) peptide (DYSTTPGGTLFSTTPGTRI (SEQ ID NO: 1)) substrate and a Europium-labeled anti-phospho-4E-BP1 antibody (CDK2, CDK1, CDK4, CDK6, CDK9, CDK12, CDK13) or ULight™-labeled Myelin Basic Protein peptide (VTPRTPPP (SEQ ID NO: 2)) substrate and a Europium-labeled anti-phospho-MBP antibody (CDK7). Each CDK enzyme activity assays utilized human CDK co-expressed as N-terminal GST-tagged protein with its full length cyclin partner using a baculovirus expression system.
Enzyme was pre-incubated with compounds and 1 mM ATP for 60 minutes (CDK 1, 2, 4, 6, 9, 7, 12, 13) prior to the addition of ATP and Ulight-peptide (1 mM and 50 nM final, respectively), in assay buffer containing 50 mM HEPES pH 7.5, 1 mM EGTA, 10 mM MgCl2, 2 mM DTT, 0.05 mg/mL BSA, and 0.01% Tween 20. The reaction was then incubated for 120 minutes at 25° C. incubator. The reactions were stopped by the addition of EDTA and Europium labeled antibody, for a final concentration of 15 mM and 0.5-1.5 nM, respectively. HTRF signals were read after 15-120 minutes. A ratio of fluorescence transferred to the labeled substrate (665 nm) relative to fluorescence of the Europium donor (620 nm) represents the extent of phosphorylation. Ratios for treated wells were normalized to DMSO only (100% activity) and no enzyme (0% activity) controls. Normalized data was analyzed using a three or four parameter dose response curve to determine IC50 for each compound and are shown in Table B. Control reference inhibitors were included on each plate.

| IC50 [nM] | Structure (SMILES) |
| --- | --- |
| > 500 | C=CC(=O)Nc1cc2nc(N3CC[C@H](O)[C@@H](Nc4ncc(C(F)(F)F)cn4)C3)n(C)c2cc1C [Example 149, N-(2-((3S,4S)-4-Hydroxy-3-((5-(trifluoromethyl)pyrimidin-2-yl)amino)piperidin-1-yl)-1,6-dimethyl-1H-benzo[d]imidazol-5-yl)acrylamide] |
| > 500 | Cc1cc2c(cc1NC(=O)/C=C/CN1CCCCC1)nc(N1C[C@H](F)C[C@@H](Nc3ncc(C(F)(F)F)cn3)C1)n2C [Example 118, (E)-N-(2-((3R,5R)-3-Fluoro-5-((5-(trifluoromethyl)pyrimidin-2-yl)amino)piperidin-1-yl)-1,6-dimethyl-1H-benzo[d]imidazol-5-yl)-4-(piperidin-1-yl)but-2-enamide] |
| < 50 | COCC#CC(=O)Nc1cc2nc(N3C[C@H](F)C[C@@H](Nc4ncc(C(F)(F)F)cn4)C3)n(C)c2cc1C [Example 114, N-(2-((3R,5R)-3-Fluoro-5-((5-(trifluoromethyl)pyrimidin-2-yl)amino)piperidin-1-yl)-1,6-dimethyl-1H-benzo[d]imidazol-5-yl)-4-methoxybut-2-ynamide] |
| < 50 | C=CC(=O)N(c1ccc2c(c1)nc(N1CCC[C@@H](Nc3ncc(C(F)(F)F)cn3)C1)n2C)C1CCOC1 (stereo partly drawn) [Example 165, N-(1-Methyl-2-((R)-3-((5-(trifluoromethyl)pyrimidin-2-yl)amino)piperidin-1-yl)-1H-benzo[d]imidazol-5-yl)-N-(tetrahydrofuran-3-yl)acrylamide] |
| < 50 | C=CC(=O)Nc1cc2nc(N3C[C@H](F)C[C@@H](Nc4ncc(C(F)(F)F)cn4)C3)n(C)c2cc1C#N [Example 140, N-(6-Cyano-2-((3R,5R)-3-fluoro-5-((5-(trifluoromethyl)pyrimidin-2-yl)amino)piperidin-1-yl)-1-methyl-1H-benzo[d]imidazol-5-yl)acrylamide] |
